Source: ChEMBL document CHEMBL1201862, “PubChem BioAssay data set” (2004)
The source made the active and inactive calls.

Columns and labels:
[1] = molecular target: T1, Estrogen receptor (Homo sapiens, UniProt P03372);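 also: potency for inhibiting coactivator peptide recruitment to the receptor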
T1 sequence (P03372 whole entry): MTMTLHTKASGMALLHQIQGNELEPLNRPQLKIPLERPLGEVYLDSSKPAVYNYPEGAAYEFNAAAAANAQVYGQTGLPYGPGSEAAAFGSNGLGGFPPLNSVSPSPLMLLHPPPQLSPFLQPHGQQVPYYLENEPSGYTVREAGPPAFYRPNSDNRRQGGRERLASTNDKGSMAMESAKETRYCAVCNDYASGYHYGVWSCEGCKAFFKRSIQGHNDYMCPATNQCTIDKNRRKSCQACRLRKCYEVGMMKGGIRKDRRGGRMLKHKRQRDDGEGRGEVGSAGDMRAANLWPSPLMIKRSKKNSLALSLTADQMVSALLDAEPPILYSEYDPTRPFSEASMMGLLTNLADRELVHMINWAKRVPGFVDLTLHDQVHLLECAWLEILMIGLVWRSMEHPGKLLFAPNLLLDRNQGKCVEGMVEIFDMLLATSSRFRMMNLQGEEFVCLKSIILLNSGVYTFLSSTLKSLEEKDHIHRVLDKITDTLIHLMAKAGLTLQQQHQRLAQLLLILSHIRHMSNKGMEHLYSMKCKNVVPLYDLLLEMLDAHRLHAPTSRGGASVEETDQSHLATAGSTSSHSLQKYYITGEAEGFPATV

[2] = molecular target: Eukaryotic translation initiation factor 4E (Mus musculus, UniProt P63073); test: eIF4E–eIF4G protein interaction inhibitors, dose response, biochemical, TR-FRET (AID 855); type: functional;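 also: potency for disrupting eIF4E binding to eIF4GI seen as loss of FRET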
[3] = Luminescence Cell-Based Dose Confirmation HTS to Identify Activators of 5'UTR Stem-Loop Driven Alpha-Synuclein mRNA Translation in H4 Neuroglioblastoma Cells. [Related pubchem assays: 1829 (Project Summary), 1814 (Primary HTS)]; type: functional
[4] = Luminescence Cell-Based Dose Response HTS to Identify Activators of Luciferase Translation or Activity in H4 […] Cells. [Related pubchem assays: 1829 (Project Summary), 1814 (Primary HTS)]; type: functional
[5] = tested on: H4; test: Luminescence Cell-Based Dose Response HTS to Identify Activators of 5'UTR Stem-Loop Driven Prion Protein mRNA Translation in H4 Neuroglioblastoma Cells. [Related pubchem assays: 1829 (Project Summary), 1814 (Primary HTS)]; type: functional; details: Homo sapiens
[6] = molecular target: T2, Rac GTPase-activating protein 1 (Homo sapiens, UniProt Q9H0H5); test: MgcRacGAP GTPase-activating activity inhibitors, confirmation, biochemical, ADP Hunter fluorescence, primary and confirmatory (AID 624330); type: functional
T2 sequence (Q9H0H5 whole entry): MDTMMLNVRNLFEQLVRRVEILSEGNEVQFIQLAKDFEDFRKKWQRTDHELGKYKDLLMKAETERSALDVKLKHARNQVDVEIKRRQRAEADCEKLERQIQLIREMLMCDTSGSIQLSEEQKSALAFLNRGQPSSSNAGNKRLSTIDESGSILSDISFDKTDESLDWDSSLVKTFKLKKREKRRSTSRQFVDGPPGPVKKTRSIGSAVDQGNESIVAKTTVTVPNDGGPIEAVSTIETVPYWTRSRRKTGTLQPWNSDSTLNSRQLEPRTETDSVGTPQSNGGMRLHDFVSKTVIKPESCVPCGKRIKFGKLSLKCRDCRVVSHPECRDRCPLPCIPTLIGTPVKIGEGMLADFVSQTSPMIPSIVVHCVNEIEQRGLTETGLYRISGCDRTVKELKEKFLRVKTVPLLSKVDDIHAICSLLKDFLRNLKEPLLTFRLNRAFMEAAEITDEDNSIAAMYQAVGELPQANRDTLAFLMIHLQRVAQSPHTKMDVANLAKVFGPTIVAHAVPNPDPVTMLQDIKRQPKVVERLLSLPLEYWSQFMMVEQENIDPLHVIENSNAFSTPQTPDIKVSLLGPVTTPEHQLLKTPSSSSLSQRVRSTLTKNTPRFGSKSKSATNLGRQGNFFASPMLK

[7] = molecular target: Beta-galactosidase (Escherichia coli, UniProt Q8VNN2); test: PubChem AID 485352; type: functional
[8] = molecular target: T3, Type-1 angiotensin II receptor (Homo sapiens, UniProt P30556); test: AT1 receptor antagonists, dose response, selectivity assay for APJ receptor antagonist project, cell-based, uHTS hits (AID 463214); type: functional;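 also: antagonist potency against angiotensin II stimulated AT1 response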
T3 sequence (P30556 whole entry): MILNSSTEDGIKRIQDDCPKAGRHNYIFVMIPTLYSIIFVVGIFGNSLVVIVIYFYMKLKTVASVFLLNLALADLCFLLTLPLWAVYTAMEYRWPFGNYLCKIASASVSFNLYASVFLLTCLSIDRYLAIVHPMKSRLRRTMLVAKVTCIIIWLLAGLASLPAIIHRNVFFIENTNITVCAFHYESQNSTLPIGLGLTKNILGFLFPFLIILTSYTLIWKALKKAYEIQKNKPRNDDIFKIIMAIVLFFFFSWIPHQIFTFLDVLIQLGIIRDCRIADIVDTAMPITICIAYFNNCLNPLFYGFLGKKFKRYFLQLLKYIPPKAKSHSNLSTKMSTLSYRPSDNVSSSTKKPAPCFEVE

[9] = Luminescence Cell-Based Dose Retest to Confirm Inhibitors of Cancer Stem Cells. [Related pubchem assays (depositor defined):AID2717, AID2721]; type: functional; details: Homo sapiens
[10] = molecular target: Glyceraldehyde-3-phosphate dehydrogenase (Homo sapiens, UniProt P04406)
[11] = molecular target: T4, Alkaline phosphatase, tissue-nonspecific isozyme (Homo sapiens, UniProt P05186); test: human TNAP enzyme inhibitors, SAR follow-up, biochemical, luminescent, dose response (AID 1056)
T4 sequence (P05186 whole entry): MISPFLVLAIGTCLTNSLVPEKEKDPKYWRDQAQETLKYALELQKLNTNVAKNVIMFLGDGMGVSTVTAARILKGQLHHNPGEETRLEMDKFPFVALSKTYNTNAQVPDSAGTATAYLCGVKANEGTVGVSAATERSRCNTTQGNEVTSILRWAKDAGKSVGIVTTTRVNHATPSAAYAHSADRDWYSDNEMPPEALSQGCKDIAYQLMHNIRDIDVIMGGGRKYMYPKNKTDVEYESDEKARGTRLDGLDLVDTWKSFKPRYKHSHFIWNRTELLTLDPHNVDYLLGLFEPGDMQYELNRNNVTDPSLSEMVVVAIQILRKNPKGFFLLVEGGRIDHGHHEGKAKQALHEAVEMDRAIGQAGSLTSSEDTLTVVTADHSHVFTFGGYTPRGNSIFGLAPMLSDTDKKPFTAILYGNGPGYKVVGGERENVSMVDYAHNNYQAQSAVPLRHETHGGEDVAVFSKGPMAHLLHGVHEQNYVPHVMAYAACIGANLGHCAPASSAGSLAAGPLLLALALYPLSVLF

[12] = molecular target: Alkaline phosphatase, placental type (Homo sapiens, UniProt P05187); test: PLAP enzyme inhibitors, confirmation, biochemical, luminescence (AID 1512); type: functional
[13] = molecular target: Peroxisome proliferator-activated receptor gamma/Nuclear receptor coactivator 1 (Homo sapiens, UniProt P37231); test: (§1) TR-FRET dose response biochemical High Throughput Screening assay for agonists of the steroid receptor coactivator 1 (SRC-1) recruitment by the peroxisome proliferator-activated receptor gamma (PPAR gamma): non-selective agonists. [Related pubchem assays (depositor defined):AID1300, AID1808, AID504735, AID631]; type: protein assay
[14] = molecular target: Peroxisome proliferator-activated receptor gamma/Nuclear receptor coactivator 3 (Homo sapiens, UniProt P37231); test: as §1, with “3 (SRC-3)” for “1 (SRC-1)”, “assays: 1301 (Confirmation screen.), 1048 (Primary screen.)]” for “assays (depositor defined):AID1300, AID1808, AID504735, AID631]”; type: functional
[15] = molecular target: Peroxisome proliferator-activated receptor gamma/Nuclear receptor coactivator 2 (Homo sapiens, UniProt P37231); test: TR-FRET dose response biochemical High Throughput Screening assay for agonists of the steroid receptor coactivator 2 (SRC-2) recruitment by the peroxisome proliferator-activated receptor gamma (PPAR gamma): non-selective agonists. [Related pubchem assays: 1297, 1032 ]; type: functional
[16] = tested on: INS1; test: beta cell apoptosis inhibitors, cytokine rescue, dose response, luminescence, retest (AID 449756); type: functional, cell-based; details: Rattus norvegicus;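 also: cell death triggered by IL-1 beta plus TNF-alpha plus IFN-gamma mixture; protective hits raise ATP signal compared with cytokine alone wells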

Peroxisome proliferator-activated receptor gamma/Nuclear receptor coactivator 2, sequence (P37231 whole entry): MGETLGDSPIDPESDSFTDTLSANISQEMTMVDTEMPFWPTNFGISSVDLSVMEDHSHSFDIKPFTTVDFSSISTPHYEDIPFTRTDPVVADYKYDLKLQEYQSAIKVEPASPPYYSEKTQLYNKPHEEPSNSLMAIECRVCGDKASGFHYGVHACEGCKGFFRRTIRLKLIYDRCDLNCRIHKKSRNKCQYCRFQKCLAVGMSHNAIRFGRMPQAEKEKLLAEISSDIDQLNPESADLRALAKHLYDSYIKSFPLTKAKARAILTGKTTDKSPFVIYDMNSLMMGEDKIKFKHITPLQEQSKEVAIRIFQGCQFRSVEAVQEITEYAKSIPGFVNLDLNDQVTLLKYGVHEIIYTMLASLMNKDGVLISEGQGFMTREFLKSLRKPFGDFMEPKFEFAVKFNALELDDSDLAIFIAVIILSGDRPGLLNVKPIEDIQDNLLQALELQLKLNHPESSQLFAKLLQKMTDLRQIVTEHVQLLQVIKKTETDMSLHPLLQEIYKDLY
Peroxisome proliferator-activated receptor gamma/Nuclear receptor coactivator 2, sequence (Q15596 whole entry, further chain): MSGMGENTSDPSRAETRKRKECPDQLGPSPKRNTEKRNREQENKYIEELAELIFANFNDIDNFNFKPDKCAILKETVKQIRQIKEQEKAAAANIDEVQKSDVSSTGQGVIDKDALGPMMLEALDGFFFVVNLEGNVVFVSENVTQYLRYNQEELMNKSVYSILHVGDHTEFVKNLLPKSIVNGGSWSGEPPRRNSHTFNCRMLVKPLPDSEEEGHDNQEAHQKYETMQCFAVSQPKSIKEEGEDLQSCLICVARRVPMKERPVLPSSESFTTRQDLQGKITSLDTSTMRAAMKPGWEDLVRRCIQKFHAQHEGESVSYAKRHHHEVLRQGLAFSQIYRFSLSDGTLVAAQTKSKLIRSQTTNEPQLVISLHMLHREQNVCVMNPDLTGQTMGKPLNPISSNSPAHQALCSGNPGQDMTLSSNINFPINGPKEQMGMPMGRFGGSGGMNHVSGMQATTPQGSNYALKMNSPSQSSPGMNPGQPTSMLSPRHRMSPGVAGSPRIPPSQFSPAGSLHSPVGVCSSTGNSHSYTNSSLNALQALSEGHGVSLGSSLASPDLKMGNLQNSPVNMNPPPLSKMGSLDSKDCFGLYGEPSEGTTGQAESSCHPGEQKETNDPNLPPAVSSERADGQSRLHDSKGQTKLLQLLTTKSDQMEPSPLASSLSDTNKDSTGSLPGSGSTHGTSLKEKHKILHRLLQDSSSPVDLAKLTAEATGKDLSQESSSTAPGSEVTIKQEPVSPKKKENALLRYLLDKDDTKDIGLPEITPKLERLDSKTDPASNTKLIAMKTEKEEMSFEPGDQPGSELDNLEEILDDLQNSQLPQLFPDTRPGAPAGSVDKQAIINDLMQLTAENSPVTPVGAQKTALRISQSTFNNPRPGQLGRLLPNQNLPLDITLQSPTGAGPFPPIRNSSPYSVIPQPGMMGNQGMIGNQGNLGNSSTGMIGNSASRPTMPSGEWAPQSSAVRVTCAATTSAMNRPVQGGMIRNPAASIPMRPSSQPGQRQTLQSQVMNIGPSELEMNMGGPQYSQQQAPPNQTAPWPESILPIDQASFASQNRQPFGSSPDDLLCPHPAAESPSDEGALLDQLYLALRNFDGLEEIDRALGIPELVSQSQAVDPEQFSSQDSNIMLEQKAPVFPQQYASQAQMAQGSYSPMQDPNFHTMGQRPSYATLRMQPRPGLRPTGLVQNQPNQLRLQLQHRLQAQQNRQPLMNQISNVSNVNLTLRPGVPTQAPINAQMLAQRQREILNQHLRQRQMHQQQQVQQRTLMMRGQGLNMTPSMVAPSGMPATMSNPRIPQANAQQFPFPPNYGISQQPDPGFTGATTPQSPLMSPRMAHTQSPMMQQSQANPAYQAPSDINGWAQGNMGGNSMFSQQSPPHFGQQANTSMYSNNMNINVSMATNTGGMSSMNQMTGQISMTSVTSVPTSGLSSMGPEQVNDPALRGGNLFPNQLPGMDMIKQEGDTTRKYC
Peroxisome proliferator-activated receptor gamma/Nuclear receptor coactivator 1, sequence (P37231 whole entry): as the sequence (P37231 whole entry) above
Peroxisome proliferator-activated receptor gamma/Nuclear receptor coactivator 1, sequence (Q15788 whole entry, further chain): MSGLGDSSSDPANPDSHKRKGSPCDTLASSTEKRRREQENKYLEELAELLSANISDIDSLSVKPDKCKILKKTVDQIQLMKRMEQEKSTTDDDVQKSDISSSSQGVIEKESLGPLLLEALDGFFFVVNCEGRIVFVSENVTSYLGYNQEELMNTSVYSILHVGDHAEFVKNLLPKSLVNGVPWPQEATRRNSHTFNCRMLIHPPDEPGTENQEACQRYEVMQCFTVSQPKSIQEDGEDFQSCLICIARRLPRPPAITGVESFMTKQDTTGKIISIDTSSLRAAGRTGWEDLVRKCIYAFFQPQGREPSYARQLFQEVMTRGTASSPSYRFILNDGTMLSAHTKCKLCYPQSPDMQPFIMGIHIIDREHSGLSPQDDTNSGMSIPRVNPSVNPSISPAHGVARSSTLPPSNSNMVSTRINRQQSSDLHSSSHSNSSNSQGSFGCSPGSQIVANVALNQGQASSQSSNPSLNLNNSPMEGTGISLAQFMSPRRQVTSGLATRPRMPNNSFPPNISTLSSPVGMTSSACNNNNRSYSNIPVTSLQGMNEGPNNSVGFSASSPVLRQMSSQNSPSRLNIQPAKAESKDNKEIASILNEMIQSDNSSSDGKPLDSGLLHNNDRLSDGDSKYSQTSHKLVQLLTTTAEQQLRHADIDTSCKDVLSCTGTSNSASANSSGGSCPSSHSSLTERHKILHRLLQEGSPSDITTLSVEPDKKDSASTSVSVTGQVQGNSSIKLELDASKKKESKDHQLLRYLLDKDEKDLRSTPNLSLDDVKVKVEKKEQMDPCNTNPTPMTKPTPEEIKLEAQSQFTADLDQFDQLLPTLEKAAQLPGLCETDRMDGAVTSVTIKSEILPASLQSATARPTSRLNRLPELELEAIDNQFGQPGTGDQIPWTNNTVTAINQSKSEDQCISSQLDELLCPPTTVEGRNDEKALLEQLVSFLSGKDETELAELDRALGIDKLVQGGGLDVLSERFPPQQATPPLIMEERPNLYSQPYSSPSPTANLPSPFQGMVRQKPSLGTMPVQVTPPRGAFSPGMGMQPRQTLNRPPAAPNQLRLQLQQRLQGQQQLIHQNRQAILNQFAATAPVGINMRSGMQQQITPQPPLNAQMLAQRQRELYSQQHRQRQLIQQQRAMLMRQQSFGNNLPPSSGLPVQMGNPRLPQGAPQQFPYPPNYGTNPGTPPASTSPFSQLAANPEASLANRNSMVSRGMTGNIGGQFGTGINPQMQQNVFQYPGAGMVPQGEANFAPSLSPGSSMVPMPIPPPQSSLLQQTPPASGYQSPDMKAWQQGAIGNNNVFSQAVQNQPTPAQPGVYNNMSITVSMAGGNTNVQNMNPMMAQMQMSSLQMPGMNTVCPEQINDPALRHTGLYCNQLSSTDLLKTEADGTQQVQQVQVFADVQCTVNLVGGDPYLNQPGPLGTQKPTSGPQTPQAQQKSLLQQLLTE
Alkaline phosphatase, placental type, sequence (P05187 whole entry): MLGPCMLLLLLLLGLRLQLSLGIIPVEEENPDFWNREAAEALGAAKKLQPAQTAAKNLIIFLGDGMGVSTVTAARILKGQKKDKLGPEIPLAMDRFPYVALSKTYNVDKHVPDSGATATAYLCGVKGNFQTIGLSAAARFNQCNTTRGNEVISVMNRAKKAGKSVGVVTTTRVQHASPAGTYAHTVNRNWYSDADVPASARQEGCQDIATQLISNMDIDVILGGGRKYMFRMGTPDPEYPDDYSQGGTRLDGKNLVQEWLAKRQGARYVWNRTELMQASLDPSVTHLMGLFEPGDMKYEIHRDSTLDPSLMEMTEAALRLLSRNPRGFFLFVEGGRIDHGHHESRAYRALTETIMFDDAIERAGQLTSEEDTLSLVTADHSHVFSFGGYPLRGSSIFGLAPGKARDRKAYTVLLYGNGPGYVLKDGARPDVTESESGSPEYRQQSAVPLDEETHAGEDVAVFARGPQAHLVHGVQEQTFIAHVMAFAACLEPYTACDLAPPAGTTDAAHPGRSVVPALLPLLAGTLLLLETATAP
Glyceraldehyde-3-phosphate dehydrogenase, sequence (P04406 whole entry): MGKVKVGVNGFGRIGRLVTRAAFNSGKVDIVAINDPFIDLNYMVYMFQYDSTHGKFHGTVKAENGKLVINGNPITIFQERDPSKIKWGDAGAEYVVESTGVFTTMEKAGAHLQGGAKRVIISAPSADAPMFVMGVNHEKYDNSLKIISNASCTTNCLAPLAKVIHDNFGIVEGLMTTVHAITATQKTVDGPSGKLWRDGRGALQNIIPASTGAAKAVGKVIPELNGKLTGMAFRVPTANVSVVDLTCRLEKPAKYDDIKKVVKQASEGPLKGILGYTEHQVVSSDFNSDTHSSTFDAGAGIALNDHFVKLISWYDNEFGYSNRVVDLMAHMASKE
Eukaryotic translation initiation factor 4E, sequence (P63073 whole entry): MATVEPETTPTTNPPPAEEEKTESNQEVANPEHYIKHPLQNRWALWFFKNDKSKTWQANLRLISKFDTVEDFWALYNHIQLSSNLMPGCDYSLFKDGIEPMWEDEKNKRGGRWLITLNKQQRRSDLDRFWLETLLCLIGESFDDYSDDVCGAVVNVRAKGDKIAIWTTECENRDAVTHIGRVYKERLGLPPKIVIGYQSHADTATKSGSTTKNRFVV

In the case of COC(=O)COc1ccc(S(=O)(=O)Nc2ccc3c(c2)OCO3)cc1, the IC50 [1] is reported as > 50 µM (not active) and the IC50 [2] is reported as > 64 µM (inactive).

For CN(C)c1ccc2c(c1)N=C(c1ccco1)OP2(=S)N1CCOCC1 (stereo not drawn), the EC50 [3] was 15.7 µM (active), the EC50 [4] was 17.9 µM (active) and the EC50 [5] was 49.6 µM (active). The IC50 [2] was > 64 µM (inactive) and the IC50 [6] was 179 µM (active).

For O=C(NNc1ccc(-c2csnn2)cc1)c1cc(Cl)cc(Cl)c1, the EC50 [7] was > 40 µM (inactive), the IC50 [8] was 2.43 µM (active) and the AC50 [9] was 2.15 µM (active).

For O=S(=O)(Nc1cccnc1)c1cc(Cl)ccc1Cl, the IC50 [10] was > 100 µM (not active) and the IC50 [11] was > 100 µM (inactive).

In the case of O=C1c2cccc(F)c2C(=O)N1c1nnc(Cc2ccccc2)[nH]1, the IC50 [10] is reported as > 100 µM (not active), the IC50 [12] is reported as > 100 µM (inactive) and the IC50 [11] is reported as 0.353 µM (active).

For CCc1c(C(=O)NNC(=S)NCC2CCCO2)csc1C (stereo not drawn), the IC50 [12] was > 100 µM (inactive).

In the case of CC1(C)CC(=O)c2c(n[nH]c2-c2cccnc2)C1, the IC50 [10] is reported as > 100 µM (not active), the IC50 [12] is reported as > 100 µM (inactive) and the IC50 [11] is reported as 13.3 µM (active).

With O=C(CSc1ncnc2c1oc1ccccc12)NC1CCCCC1 the EC50 [13] was 9.85 µM (active), the EC50 [14] was > 79.4 µM (not active) and the EC50 [15] was 14.4 µM (not active).

With COc1ccc(CNC(=O)CSc2nc(-c3ccccc3)cc(-c3cccs3)c2C#N)cc1 the EC50 [13] was 22.9 µM (inactive), the EC50 [14] was > 79.4 µM (not active) and the EC50 [15] was 22.2 µM (not active).

In the case of O=C(O)c1ccc2c(c1)C(=O)N(c1nc(-c3cccnc3)n[nH]1)C2=O, the IC50 [10] is reported as > 100 µM (not active) and the IC50 [11] is reported as > 100 µM (inactive).

With CCOC(=O)c1sc2nc(C)nc(S)c2c1C the EC50 [13] was 162 µM (inactive), the EC50 [14] was > 79.4 µM (not active) and the EC50 [15] was 37.3 µM (not active).

In the case of COc1ccc(CC(=O)OCC(=O)c2ccc(S(=O)(=O)N3CCCCC3)cc2)cc1, the EC50 [7] is reported as > 40 µM (inactive) and the IC50 [8] is reported as 20 µM (not active).

With Nc1nc(COc2ccccc2)n(-c2ccccc2)n1 the IC50 [10] was > 100 µM (not active), the IC50 [12] was > 100 µM (inactive) and the IC50 [11] was > 100 µM (inactive).

For COc1ccc2c(c1)C(=O)[C@H](O)[C@@H](c1ccc(OC)c(Br)c1)O2, the EC50 [7] was > 40 µM (inactive), the IC50 [8] was 12.1 µM (active) and the AC50 [9] was 7.62 µM (active). For the same compound, the AC50 [16] was 3.71 µM (active).

In the case of CCNC(=S)NNC(=O)c1cc(C2CC2)nc2ccccc12, the IC50 [12] is reported as > 100 µM (inactive).

For Cc1ccc(-n2c(S)nnc2-c2cccc(C)c2)cc1, the EC50 [13] was 70.8 µM (inactive), the EC50 [14] was > 79.4 µM (not active) and the EC50 [15] was 40.1 µM (not active).

For O=C1CC(Sc2nnc(-c3ccccc3)o2)C(=O)N1c1ccccc1 (stereo not drawn), the EC50 [13] was > 79.4 µM (inactive), the EC50 [14] was > 79.4 µM (not active) and the EC50 [15] was 89.2 µM (not active).

With O=C(CSc1nnc(-c2ccccc2)[nH]1)c1ccc(O)cc1O the IC50 [12] was > 100 µM (inactive) and the IC50 [11] was 3.71 µM (active).
